Paper PMC6627067, “Probing Multi-Target Action of Phlorotannins as New Monoamine Oxidase Inhibitors and Dopaminergic Receptor Modulators with the Potential for Treatment of Neuronal Disorders” (Marine Drugs, 2019)

How the values were obtained:
[1] = target: T1, hMAO-A (Homo sapiens, UniProt P21397); experiment: hMAO-A inhibition, chemiluminescent MAO-Glo assay and kinetic analysis; assay type: biochemical
T1 sequence (P21397 1-527): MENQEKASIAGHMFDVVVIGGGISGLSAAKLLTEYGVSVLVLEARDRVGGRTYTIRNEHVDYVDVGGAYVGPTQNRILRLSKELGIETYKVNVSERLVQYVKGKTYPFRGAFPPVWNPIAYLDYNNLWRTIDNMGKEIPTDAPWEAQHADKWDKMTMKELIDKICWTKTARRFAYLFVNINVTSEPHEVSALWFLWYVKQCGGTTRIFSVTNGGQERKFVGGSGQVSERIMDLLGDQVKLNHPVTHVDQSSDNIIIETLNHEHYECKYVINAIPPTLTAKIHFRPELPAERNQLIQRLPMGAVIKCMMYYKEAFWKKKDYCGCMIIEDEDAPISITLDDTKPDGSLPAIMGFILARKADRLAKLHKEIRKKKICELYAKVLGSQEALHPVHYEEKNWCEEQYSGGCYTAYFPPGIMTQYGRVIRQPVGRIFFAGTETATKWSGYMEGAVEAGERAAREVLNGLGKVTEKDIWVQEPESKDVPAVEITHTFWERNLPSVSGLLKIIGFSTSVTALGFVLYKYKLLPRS

[2] = target: T2, hMAO-B (Homo sapiens, UniProt P27338); experiment: hMAO-B inhibition, chemiluminescent MAO-Glo assay and kinetic analysis; assay type: biochemical; details: recombinant hMAO-B; mean ± SD, n = 3
T2 sequence (P27338 1-520): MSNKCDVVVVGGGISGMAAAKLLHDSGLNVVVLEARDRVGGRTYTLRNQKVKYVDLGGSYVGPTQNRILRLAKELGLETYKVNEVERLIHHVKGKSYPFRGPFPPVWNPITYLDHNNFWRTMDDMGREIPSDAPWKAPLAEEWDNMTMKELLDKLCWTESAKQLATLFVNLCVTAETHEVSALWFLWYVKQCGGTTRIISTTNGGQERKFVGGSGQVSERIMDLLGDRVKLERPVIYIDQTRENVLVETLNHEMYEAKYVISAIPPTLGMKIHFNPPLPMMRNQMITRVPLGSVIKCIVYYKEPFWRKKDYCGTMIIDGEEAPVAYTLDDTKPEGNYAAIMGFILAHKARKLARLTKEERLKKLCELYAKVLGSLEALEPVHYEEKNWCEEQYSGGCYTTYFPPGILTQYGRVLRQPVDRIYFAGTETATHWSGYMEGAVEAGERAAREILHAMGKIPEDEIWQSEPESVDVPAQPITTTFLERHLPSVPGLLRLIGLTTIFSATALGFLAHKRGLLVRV

[3] = target: hNK1 (TACR1) (Homo sapiens, UniProt P25103); experiment: GPCR cell-based functional assay, intracellular Ca2+ level, NK1; details: positive control; read-out: IC50 of standard antagonist, hNK1
Sequence of hNK1 (TACR1) (P25103 whole entry): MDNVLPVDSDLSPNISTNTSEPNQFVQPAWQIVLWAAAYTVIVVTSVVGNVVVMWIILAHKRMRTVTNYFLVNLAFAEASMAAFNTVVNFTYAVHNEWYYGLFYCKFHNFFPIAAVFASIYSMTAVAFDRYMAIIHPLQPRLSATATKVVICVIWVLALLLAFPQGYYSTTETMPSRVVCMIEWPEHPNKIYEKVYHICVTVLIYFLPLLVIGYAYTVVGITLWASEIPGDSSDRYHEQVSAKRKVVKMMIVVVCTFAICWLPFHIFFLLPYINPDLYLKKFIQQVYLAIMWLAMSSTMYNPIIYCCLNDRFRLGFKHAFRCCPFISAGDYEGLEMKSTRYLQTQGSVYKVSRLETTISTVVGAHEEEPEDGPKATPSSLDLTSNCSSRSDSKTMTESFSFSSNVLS

SMILES	IC50 [1] [µM]	IC50 hMAO-A ([1]; recombinant hMAO-A, mean ± SD, n = 3)	IC50 [2] [µM]	IC50 hMAO-B [2]	IC50 [3] [µM]
Oc1cc(O)c2oc3cc(O)c4oc5cc(O)cc(O)c5oc4c3oc2c1 [Dioxinodehydroeckol, dioxinodehydroeckol]	> 300	no inhibitory activity	> 300	no inhibitory activity	–
FC(F)(F)c1cc(CO[C@H]2CCCN[C@H]2c2ccccc2)cc(C(F)(F)F)c1 [L-733,060, reference compound]	–	–	–	–	0.0016
